In article PMC7681098 (Theranostics, 2021):
Where two headings read alike, the source gives them in different places.

Columns and labels:
MOLM13 cells = test: Stroma-protecting model: proliferation in HS-5 conditional medium or normal medium; format: cell-based; details: Homo sapiens
Protocol: At the indicated time point, cell viability was evaluated by MTT assay.
(A) Indicated FLT3 mutations were expressed in BaF3 cells respectively. […] The autophosphorylation level of FLT3 was visualized and compared by western blot analysis. […] The CM was prepared from HS-5 cell culture for 4 days under routine culture conditions, clarified by centrifugation, and used immediately. The CM was added to complete medium at a final concentration of 40%. Cell viabilities were measured by MTT assay. Data were shown as mean±SD. […] The FLT3 phosphorylation levels of FLT3, STAT5 and ERK 1/2 were determined by Western blot.
On the other hand, the bone marrow stroma-protecting environment containing a number of cytokines (e.g. FLT3 ligand, stromal derived factor-1, etc) could also decrease the drug efficacy of FLT3 inhibitors by activating FLT3 or its downstream effectors and building cross-talk between leukemic blasts and bone marrow microenvironment, [35].

U937 = test: Cell proliferation MTT assay; format: cell-based; details: Homo sapiens, U-937, 72 h, wild-type FLT3, read-out: Human leukemia cell line IC50 U937
Protocol: (§1) The conditional medium (CM) was prepared from the supernatant of HS-5 cell culture for 5 days under normal culture conditions. At the indicated time point, cell viability was evaluated by MTT assay.

MOLM13 = test: Cell proliferation MTT assay; format: cell-based; details: Homo sapiens, MOLM-13, 72 h, read-out: Human leukemia cell line IC50 MOLM13
Protocol: as §1

MV4-11 = test: Cell proliferation MTT assay; format: cell-based; details: Homo sapiens, 72 h, read-out: Human leukemia cell line IC50 MV4-11
Protocol: as §1

THP-1 = test: Cell proliferation MTT assay; format: cell-based; details: Homo sapiens, 72 h, wild-type FLT3, read-out: Human leukemia cell line IC50 THP-1
Protocol: as §1

ERK1 = target: T1, ERK1 (Homo sapiens, UniProt P27361); test: Kinase inhibition assay (Reaction Biology); format: biochemical; details: 10 μM ATP, 10-dose IC50 mode
T1 construct: purchased Reaction Biology Corporation (PA, USA)
T1 sequence (P27361 whole entry): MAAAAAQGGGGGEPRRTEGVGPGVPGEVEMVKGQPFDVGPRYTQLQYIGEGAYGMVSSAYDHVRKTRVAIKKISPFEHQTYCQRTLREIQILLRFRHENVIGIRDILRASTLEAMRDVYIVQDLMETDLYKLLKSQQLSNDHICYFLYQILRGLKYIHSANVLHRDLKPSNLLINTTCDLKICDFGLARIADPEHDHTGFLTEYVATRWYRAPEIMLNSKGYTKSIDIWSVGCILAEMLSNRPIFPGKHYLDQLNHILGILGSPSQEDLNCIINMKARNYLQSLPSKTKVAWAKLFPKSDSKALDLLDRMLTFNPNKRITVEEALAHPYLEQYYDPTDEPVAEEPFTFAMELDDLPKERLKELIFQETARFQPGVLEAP

MV4-11 cells = test: Bone marrow engrafted model, survival; format: in vivo, NOD-SCID mice; details: MV4-11 bone marrow engraftment; LT-171-861 10 mg/kg every other day, sorafenib orally every day
Protocol: Six-week-old female NOD-SCID mice were treated with sub-lethal dose radiation (1.8 Gy) before intravenous injection of MV4-11 cells (5×10^6) or MOLM13 cells (5×10^6).
Data were shown as mean±SD. […] Data were shown as mean±SD. (C) An engrafted tumor model was used to evaluate in vivo antitumor activity. The NOD/SCID mice were intravenously inoculated with MV4-11 cells. […] Log-rank testing was used to compare survival curves among treatment groups. […] (D) Apoptotic assays in engraft model were evaluated by TUNEL assay and cell proliferative activity was measured by Ki67 assay. Images were acquired at ×40 magnification. (E) BALB/c nude mice were subcutaneously inoculated with MV4-11 cells (5×10^6) and bodyweight of each mouse was recorded every other day. (F) Representative photo of tumors from BALB/c nude mice which were inoculated with MV4-11 cells. (G) BALB/c nude mice were subcutaneously inoculated with BaF3 cells bearing FLT3-ITD-N676D (n=6) and FLT3-ITD-F691L (n=6) respectively. […] (H) BALB/c mice were intravenously inoculated with cells used in (G). […] Log-rank testing was used to compare survival curves among treatment groups. […] (I) Representative photos of spleens dissected from mice in (H) inoculated with BaF3 cells bearing FLT-3-ITD-F691L.
Mice that received vehicle treatment died within 30 days after intravenous injection of MV4-11 cells.

[1] = tested on: BaF3 cells with FLT3-ITD/D835Y; test: Cell viability of transformed BaF3 cells; format: cell-based, murine; details: Mus musculus, BaF3; cell viability; read-out: BaF3 cells with FLT3 mutants IC50 ITD-D835Y
Protocol: (§2) Lentivirus packaging and construction of transformed BaF3 cells were performed as described previously. […] Supernatants were collected and used to infect BaF3 cells, and transduced BaF3 cells were selected with puromycin (1 μg/ml) to obtain stably transformed cells.
as §1

[2] = tested on: BaF3 cells with FLT3-ITD/Y842C; test: Cell viability of transformed BaF3 cells; format: cell-based, murine; details: Mus musculus, read-out: BaF3 cells with FLT3 mutants IC50 ITD-Y842C
Protocol: as §2, §1

BaF3 cells with FLT3-ITD = test: Cell viability of transformed BaF3 cells; format: cell-based, murine; details: Mus musculus, read-out: BaF3 cells with FLT3 mutants IC50 ITD
Protocol: as §2, §1

[3] = tested on: BaF3 cells with FLT3-ITD/N676D; test: Cell viability of transformed BaF3 cells; format: cell-based, murine; details: Mus musculus, read-out: BaF3 cells with FLT3 mutants IC50 ITD-N676D
Protocol: as §2, §1

[4] = tested on: BaF3 cells with FLT3-ITD/F691L; test: Cell viability of transformed BaF3 cells; format: cell-based, murine; details: Mus musculus, read-out: BaF3 cells with FLT3 mutants IC50 ITD-F691L
Protocol: as §2, §1

[5] = tested on: BaF3 cells with FLT3-D835Y; test: Cell viability of transformed BaF3 cells; format: cell-based, murine; details: Mus musculus, read-out: BaF3 cells with FLT3 mutants IC50 D835Y
Protocol: as §2, §1

Row | Compound | IC50 (MOLM13 cells; MOLM-13, 72 h, read-out: IC50 proliferation of MOLM13 cells in CM) [nM] | IC50 (MOLM13 cells; MOLM-13, 72 h, read-out: IC50 proliferation of MOLM13 cells in NM) [nM] | IC50 (U937) [nM] | IC50 (MOLM13) [nM] | IC50 (MV4-11) [nM] | IC50 (THP-1) [nM] | IC50 (ERK1) [nM] | IC50 (MOLM13 cells; MOLM-13, HS-5 conditional medium (CM) 40%, 72 h, MTT, read-out: IC50 proliferation of MOLM13 cells in CM) [nM] | IC50 (MOLM13 cells; MOLM-13, normal medium (NM), 72 h, MTT, read-out: IC50 proliferation of MOLM13 cells in NM) [nM] | survival versus vehicle (MV4-11 cells) | IC50 [1] [nM] | IC50 [2] [nM] | IC50 (BaF3 cells with FLT3-ITD) [nM] | IC50 [3] [nM] | IC50 [4] [nM] | IC50 [5] [nM]
1 | CC(C)(C)c1cc(NC(=O)Nc2ccc(-c3cn4c(n3)sc3cc(OCCN5CCOCC5)ccc34)cc2)no1 [AC220] | 116 | 14.1 | > 1000 | 1.2 | 1.5 | > 1000 |  |  |  |  |  |  |  |  |  | 
2 | O=C(Nc1ccc2[nH]nc(-c3ccncc3)c2c1)[C@@H]1CCN(CC(=O)N2CCN(c3ccc(-c4ncccn4)cc3)CC2)C1 [SCH772984, reference compound] |  |  |  |  |  |  | 4.9 |  |  |  |  |  |  |  |  | 
3 | CNC(=O)c1cc(Oc2ccc(NC(=O)Nc3ccc(Cl)c(C(F)(F)F)c3)cc2)ccn1 [Sorafenib, reference compound] |  |  | > 1000 | 5.3 | 3.2 | > 1000 |  | 1460 | 11.3 | increased survival rates | 878 | 346 | 13.2 | 103 | 45.2 | 235
